Measured values reported in PubChem BioAssay (NCI).
Values joined by “and” are separate entries in the source; they are usually repeats but may differ in a detail not shown here. Identical values can stand only once.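 Interpolation was linear, between the two tested concentrations surrounding the appropriate level; five concentrations were tested over 48 hours in 96-well plates. GI50 is the concentration that inhibits growth by half. At the TGI there is no net growth.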

How the values were obtained:
Assay in all cases: DTP human tumour cell line panel, 48 h
[1] = tested on: SN12C renal
[2] = tested on: SNB-19 CNS
[3] = tested on: NCI-H522 lung
[4] = tested on: SNB-75 CNS
[5] = tested on: CCRF-CEM leukemia
[6] = tested on: K-562 leukemia
[7] = tested on: SK-MEL-28 melanoma
[8] = tested on: ACHN renal
[9] = tested on: DU-145 prostate
[10] = tested on: HS 578T breast

SMILES: O=C(Cc1nc2ccccc2s1)Nc1ccc(Cl)cc1
- TGI [1]: > 100 µM
- TGI [2]: > 100 µM
- TGI [3]: > 100 µM
- TGI [4]: > 100 µM
- TGI [5]: > 100 µM
- TGI [6]: > 100 µM
- TGI [7]: > 100 µM
- TGI [8]: > 100 µM

SMILES: CN(C)CCCNC(=O)c1ccc2oc3cc4ccccc4c(=O)n3c2c1
- GI50 [1]: 45.6 µM
- TGI [1]: > 50 µM
- GI50 [2]: > 50 µM
- TGI [2]: > 50 µM
- GI50 [3]: 17.4 µM
- TGI [3]: > 50 µM
- GI50 [4]: 12.6 µM
- TGI [4]: 33.1 µM
- GI50 [9]: 36.7 µM
- TGI [9]: > 50 µM
- GI50 [6]: 33.8 µM
- TGI [6]: > 50 µM
- GI50 [7]: 19.9 µM
- TGI [7]: > 50 µM
- GI50 [8]: 11.8 µM
- TGI [8]: > 50 µM

SMILES: C#Cc1c(C)c(/C=C/C(C)=C/C=C/C(C)=C/C(=O)OC)n(C)c1C
- TGI [2]: > 100 µM
- TGI [3]: > 100 µM
- TGI [4]: > 100 µM
- TGI [5]: > 100 µM
- TGI [6]: > 100 µM
- TGI [7]: > 100 µM
- TGI [8]: > 100 µM

SMILES: COc1ccc2c(c1O)C(=O)C(CCC(=O)O)CC2 (stereo unspecified)
- TGI [1]: > 100 µM
- TGI [2]: > 100 µM
- TGI [4]: > 100 µM
- TGI [5]: > 100 µM
- TGI [7]: > 100 µM
- TGI [8]: > 100 µM

SMILES: O=C(NCCO)c1cc2c(cn1)[nH]c1ccccc12
- TGI [1]: > 100 µM
- TGI [2]: > 100 µM
- TGI [3]: > 100 µM
- TGI [4]: > 100 µM
- TGI [5]: > 100 µM
- TGI [6]: > 100 µM
- TGI [7]: > 100 µM
- TGI [8]: > 100 µM

SMILES: CCN(CC)c1ccc(C2CC(c3cc(OC)c(OC)c(OC)c3)=NN2)cc1 (stereo unspecified)
- GI50 [1]: 0.737 µM
- TGI [1]: > 100 µM
- GI50 [2]: 0.636 µM
- TGI [2]: > 100 µM
- GI50 [3]: 0.295 µM
- TGI [3]: 5.18 µM
- GI50 [4]: 0.372 µM
- GI50 [5]: 0.277 µM
- TGI [5]: 1.16 µM
- GI50 [9]: 0.305 µM
- TGI [9]: 1.49 µM
- GI50 [6]: 0.336 µM
- TGI [6]: > 37.6 µM
- GI50 [7]: 23.7 µM
- TGI [7]: > 100 µM
- GI50 [8]: 1.55 µM
- TGI [8]: > 100 µM

SMILES: NCCCCCCCCn1c2c(c3ccccc3c1=O)C(=O)c1ccccc1-2
- GI50 [1]: 3.45 µM
- TGI [1]: 11.3 µM
- GI50 [2]: 5.9 µM
- TGI [2]: 80.8 µM
- GI50 [10]: 3.83 µM
- TGI [10]: 22.2 µM
- GI50 [3]: 2.46 µM
- TGI [3]: 6.37 µM
- GI50 [4]: 7.65 µM
- TGI [4]: 26.8 µM
- GI50 [9]: 3.4 µM
- TGI [9]: 14 µM
- GI50 [6]: 1.87 µM
- TGI [6]: 3.67 µM
- GI50 [7]: 2.87 µM
- TGI [7]: 8.47 µM
- GI50 [8]: 4.07 µM
- TGI [8]: 14 µM

SMILES: N=C(N)/N=C(\N)c1c(-c2cc(O)ccc2O)nc2sccn12
- GI50 [1]: 19.4 µM
- TGI [1]: 39.7 µM
- GI50 [2]: > 100 µM
- TGI [2]: > 100 µM
- GI50 [10]: > 100 µM
- TGI [10]: > 100 µM
- GI50 [3]: 32.4 µM
- TGI [3]: > 100 µM
- GI50 [5]: 10.3 µM
- TGI [5]: 33.7 µM
- GI50 [9]: 16.8 µM
- TGI [9]: 30.5 µM
- GI50 [6]: 33 µM
- TGI [6]: > 100 µM
- GI50 [7]: 21.4 µM
- TGI [7]: 46 µM
- GI50 [8]: 20.8 µM
- TGI [8]: 40.5 µM

SMILES: C#CCSc1n[nH]c(-c2ccco2)n1
- TGI [1]: > 100 µM
- TGI [2]: > 100 µM
- TGI [10]: > 100 µM
- TGI [3]: > 100 µM
- TGI [4]: > 100 µM
- TGI [9]: > 100 µM
- TGI [6]: > 100 µM
- TGI [7]: > 100 µM
- TGI [8]: > 100 µM

SMILES: CCC(=O)C1(c2ccccc2)CCN(C)CC1
- TGI [2]: > 100 µM
- TGI [10]: > 100 µM
- TGI [4]: > 100 µM
- TGI [5]: > 100 µM
- TGI [9]: > 100 µM
- TGI [6]: > 100 µM
- TGI [7]: > 100 µM
- TGI [8]: > 100 µM

SMILES: CCc1c2c(nc3cc4c(c(N)c13)OCO4)-c1cc3c(c(=O)n1C2)COC(=O)[C@]3(O)CC
- GI50 [1]: < 0.001 µM
- TGI [1]: > 100 µM
- GI50 [2]: < 0.001 µM
- TGI [2]: 0.183 µM
- TGI [10]: > 100 µM
- TGI [3]: 1.36 µM and 0.663 µM
- GI50 [4]: < 0.001 µM
- GI50 [9]: < 0.001 µM
- TGI [9]: > 100 µM
- GI50 [6]: 0.00135 µM
- TGI [6]: > 100 µM
- GI50 [7]: 0.473 µM and 0.249 µM
- TGI [7]: 5.44 µM and 32.4 µM
- GI50 [8]: < 0.001 µM
- TGI [8]: 0.412 µM

SMILES: O=C(O)C1=C(C(=O)Nc2ccccc2)C2C=CC1C2 (stereo unspecified)
- TGI [1]: > 100 µM
- TGI [2]: > 100 µM
- TGI [4]: > 100 µM
- TGI [5]: > 100 µM
- TGI [6]: > 100 µM
- TGI [7]: > 100 µM
- TGI [8]: > 100 µM

SMILES: COc1cccc(Cn2c(-c3nonc3N)nc3ccccc32)c1
- GI50 [1]: 0.751 µM
- TGI [1]: > 100 µM
- GI50 [2]: 0.907 µM
- TGI [2]: > 100 µM
- GI50 [3]: 0.245 µM
- TGI [3]: 0.688 µM
- GI50 [4]: 0.225 µM
- TGI [4]: 2.02 µM
- GI50 [5]: 0.348 µM
- TGI [5]: > 100 µM
- GI50 [9]: 0.591 µM
- TGI [9]: > 100 µM
- GI50 [6]: 0.355 µM
- TGI [6]: > 100 µM
- GI50 [7]: 0.781 µM
- TGI [7]: > 91.8 µM
- GI50 [8]: 0.612 µM
- TGI [8]: > 100 µM

SMILES: C=CCCOC(=O)CO[N+](=O)[O-]
- TGI [1]: > 100 µM
- TGI [2]: > 100 µM
- TGI [3]: > 100 µM
- TGI [4]: > 100 µM
- TGI [5]: > 100 µM
- TGI [6]: > 100 µM
- TGI [7]: > 100 µM
- TGI [8]: > 100 µM

SMILES: CCSC(SCC)c1cc2c(cc1Br)OCO2
- TGI [1]: > 100 µM
- TGI [2]: > 100 µM
- TGI [3]: > 100 µM
- TGI [4]: 62.9 µM
- TGI [5]: 62.4 µM
- TGI [6]: 32.7 µM
- TGI [7]: > 100 µM
- TGI [8]: > 100 µM

SMILES: CC(C)CC1C(=O)N2CCC[C@H]2C2(O)O[C@](NC(=O)C3C=C4c5cccc6[nH]c(Br)c(c56)C[C@H]4N(C)C3)(C(C)C)C(=O)N12 (stereo partly specified)
- GI50 [1]: 10.2 µM
- TGI [1]: > 100 µM
- TGI [2]: > 100 µM
- GI50 [10]: 68.9 µM
- TGI [10]: > 100 µM
- GI50 [4]: 5.55 µM
- TGI [4]: > 100 µM
- GI50 [5]: 8.53 µM
- TGI [5]: > 100 µM
- TGI [9]: > 100 µM
- GI50 [6]: 6.17 µM
- TGI [6]: > 100 µM
- TGI [7]: > 100 µM
- GI50 [8]: 8.9 µM
- TGI [8]: > 100 µM

SMILES: COc1ccc(/C=C/C(=O)C(C)(C)CN2CCCCC2)cc1
- TGI [1]: 44.1 µM
- TGI [2]: > 100 µM
- TGI [3]: 30 µM
- TGI [4]: 47.1 µM
- TGI [5]: 60.6 µM
- TGI [6]: 65.2 µM
- TGI [7]: 65.9 µM
- TGI [8]: 60.1 µM

SMILES: CC(/C=C/C(=O)c1sc(-n2nc(-c3ccccc3)cc2-c2ccccc2)nc1C)=C\c1ccccc1
- TGI [1]: > 100 µM
- TGI [2]: > 100 µM
- TGI [3]: > 100 µM
- GI50 [4]: 28.4 µM
- TGI [5]: > 100 µM
- TGI [6]: > 100 µM
- GI50 [7]: > 100 µM
- TGI [7]: > 100 µM
- TGI [8]: > 100 µM

SMILES: COc1ccccc1/C=C/C(=O)c1c(O)cc2occc2c1OC
- GI50 [1]: > 100 µM
- TGI [1]: > 100 µM
- GI50 [2]: 30.8 µM
- TGI [2]: > 100 µM
- GI50 [10]: 38.2 µM
- TGI [10]: > 100 µM
- GI50 [3]: > 100 µM
- TGI [3]: > 100 µM
- GI50 [4]: 7.49 µM
- TGI [4]: 26.3 µM
- GI50 [5]: 9.72 µM
- TGI [5]: > 100 µM
- GI50 [9]: 23.5 µM
- TGI [9]: > 100 µM
- GI50 [7]: > 100 µM
- TGI [7]: > 100 µM
- GI50 [8]: 30 µM
- TGI [8]: > 100 µM
